Assay results taken from US20220364065A1, “COMPOSITION FOR REMOVING PLURIPOTENT STEM CELLS AND METHOD OF REMOVING PLURIPOTENT STEM CELLS” (NATIONAL UNIVERSITY CORPORATION HOKKAIDO UNIVERSITY, priority 2018, published 2022).

Tests used:
C2C12: mouse myoblasts = experiment: MTT assay, viability of C2C12 cells; format: cell-based; details: 10 μM BRQ, 3 days
Procedure: (§1) One thousand cells were seeded into each well of a 96-well plate and cultured for 3 days in medium (200 μL/well) supplemented with only DMSO at a final concentration of 0.1% or in medium (200 μL/well) supplemented with each dihydroorotate dehydrogenase (DHODH) inhibitor. The medium used was the appropriate culture solution for each cell as described above.
(§2) The concentration of each DHODH inhibitor added to the medium was a 2-fold dilution series starting from 200 μM.
(§3) As a background, a well containing medium only was prepared, and as a control, a well was also prepared in which medium containing Triton X-100 (final concentration 0.2%) was added to the cells.
(§4) Then, 5 μL of MTT (5 mg/ml, manufactured by Wako) was added to each well, and the cells were incubated at 37° C. for 2 to 3 hours. Then, the medium was replaced with 100 μL of DMSO to lyse the cells, and the absorbance of these cell lysates at a wavelength of 570 nm was measured with a microplate reader (manufactured by Bio-Rad, Benchmark model). In addition, based on the obtained absorbance, the cell viability was calculated by the following formula.
(§5) Cell viability (%)=(absorbance in wells with DHODH inhibitor-absorbance in background)/(absorbance in control-absorbance in background)×100. […]

mouse ES cells [1] = experiment: Immunostaining of pluripotent stem cell markers (Sox2, Nanog, Oct4), ES cells; format: cell-based
Procedure: The cells were fixed and immunostained as described in Kondo et al., Genes Dev. […] For the culture of ES cells and iPS cells, gelatin-coated ones were used.
For immunostaining, the cells were first washed once with PBS, then fixed by adding 4% paraformaldehyde and incubating for 10 minutes at room temperature. The cells were replaced with PBS containing 0.3% Triton X100 and incubated for 5 minutes at room temperature, then replaced with PBS containing 0.3% Triton X100 and 10% FCS (blocking solution) and incubated for 30 minutes at room temperature. The solution was replaced with primary antibody solution diluted in blocking solution and incubated for 2 hours at room temperature. After washing three times with PBS, secondary antibody and DAPI solution diluted with blocking solution were added and incubated at room temperature for 2 hours. […] Note that the cell nuclei were visualized by contrast staining with DAPI solution (1 μg/mL, manufactured by Dojindo, product code: D523). In addition, fluorescence images were acquired with an Axiolmager M1 microscope (manufactured by Carl Zeiss).
LMB is a specific inhibitor of CRM1, also known as Exportin 1.

mouse neural stem cells = experiment: Sox2 immunostaining, neural stem cells; format: cell-based; details: 10 μM BRQ, 24 hours
Procedure: (§6) The cells were fixed and immunostained as described in Kondo et al., Genes Dev. 2004, Vol. 18, Issue 23, pp. 2963-72. […] For the culture of mNSCs, PDL+fibronectin-coated ones were used (see Johe KK et al., Genes Dev. 1996, Vol. 10, Issue 24, pp. 3129 to 3140). For the culture of ES cells and iPS cells, gelatin-coated ones were used.
(§7) For immunostaining, the cells were first washed once with PBS, then fixed by adding 4% paraformaldehyde and incubating for 10 minutes at room temperature. The cells were replaced with PBS containing 0.3% Triton X100 and incubated for 5 minutes at room temperature, then replaced with PBS containing 0.3% Triton X100 and 10% FCS (blocking solution) and incubated for 30 minutes at room temperature. The solution was replaced with primary antibody solution diluted in blocking solution and incubated for 2 hours at room temperature. After washing three times with PBS, secondary antibody and DAPI solution diluted with blocking solution were added and incubated at room temperature for 2 hours. After washing three times with PBS, the cells were sealed with anti-fading agent (manufactured by DAKO, code number: 53023) and observed under a microscope. […] In addition, fluorescence images were acquired with an Axiolmager M1 microscope (manufactured by Carl Zeiss). […]

mouse ES cells [2] = experiment: Teratoma formation from pretreated ES cells in NOD/SCID mice; format: in vivo; details: ES cells pretreated 2 days with 10 μM BRQ, subcutaneous in NOD/SCID mice, 4 weeks
Procedure: (§8) The viable cells (1×10^6) were suspended in 50 μl of Matrigel (manufactured by BD Biosciences) and injected subcutaneously into the buttocks of 5-8-week-old NOD/SCID mice anesthetized with 10% pentobarbital. Four weeks after the injection, the mice were sacrificed to death, and the tumors were removed and photographed for their size measurement according to the method described in Tsukamoto Y, et al., Stem Cells. 2016; 34(8): 2016-2025. Based on the measurement values obtained, the volume of the tumors was calculated by the following formula.
(§9) Volume of tumor (cm^3)=major diameterxminor diameterxminor diameter×½.
(§10) Then, 4 weeks after transplantation, the tumors were removed and observed.

mouse ES cells [3] = experiment: Cell proliferation and cell death (BrdU uptake, Ki67, Casp3 immunostaining), ES cells; format: cell-based; details: BRQ 2 days
Procedure: as §6, §7

[4] = system: mouse neural stem cells and mouse iPS cells; experiment: Mixed culture of neural stem cells and iPS cells, Nestin/Nanog immunostaining; format: cell-based; details: 10 μM BRQ, 3 days
Procedure: as §6
For immunostaining, the cells were first washed once with PBS, then fixed by adding 4% paraformaldehyde and incubating for 10 minutes at room temperature. The cells were replaced with PBS containing 0.3% Triton X100 and incubated for 5 minutes at room temperature, then replaced with PBS containing 0.3% Triton X100 and 10% FCS (blocking solution) and incubated for 30 minutes at room temperature. The solution was replaced with primary antibody solution diluted in blocking solution and incubated for 2 hours at room temperature. After washing three times with PBS, secondary antibody and DAPI solution diluted with blocking solution were added and incubated at room temperature for 2 hours. After washing three times with PBS, the cells were sealed with anti-fading agent (manufactured by DAKO, code number: 53023) and observed under a microscope. […] In addition, fluorescence images were acquired with an Axiolmager M1 microscope (manufactured by Carl Zeiss).
The cells were then analyzed by immunostaining as described above.

mouse iPS cells [5] = experiment: Teratoma formation from pretreated iPS cells in NOD/SCID mice; format: in vivo; details: iPS cells pretreated 2 days with 10 μM BRQ, subcutaneous in NOD/SCID mice, 4 weeks
Procedure: as §8, §9, §10

mouse ES cells [6] = experiment: MTT assay, viability of mouse ES cells; format: cell-based; details: 3 days
Procedure: as §1, §2, §3, §4
(§11) Cell viability (%)=(absorbance in wells with DHODH inhibitor-absorbance in background)/(absorbance in control-absorbance in background)×100.

mouse iPS cells [7] = experiment: MTT assay, viability of mouse iPS cells; format: cell-based; details: 3 days
Procedure: as §1, §2, §3, §4, §11

[8] = system: NT2: human embryonal carcinoma (EC) cells; experiment: MTT assay, viability of NT2 cells; format: cell-based; details: 10 μM BRQ, 3 days
Procedure: as §1, §2, §3, §4, §5

[9] = Side effects in treated tumor-bearing mice; format: in vivo; details: NOD/SCID mice, BRQ intraperitoneally
[10] = ES cells, 2 days, BRQ 10 μM (ZVAD 100 nM where added)
[11] = mouse ES cells, 10 μM BRQ, 24 hours
[12] = 2-fold dilution series starting from 200 μM

## Cc1c(-c2ccc(-c3ccccc3F)cc2)nc2ccc(F)cc2c1C(=O)O [BRQ, 6-fluoro-2-(2′-fluoro-1,1′-biphenyl-4-yl)-3-methyl-4-quinoline-sodium carboxylate]
C2C12: mouse myoblasts
  cytotoxic activity (viability, MTT assay): no significant cytotoxic activity
Mouse ES cells [1]; [10]
  Nanog-positive cells: 6%
  Oct4-positive cells: 2%
Mouse ES cells [1]; [11]
  cells in which expression of Sox2 was not observed: about 30%
  inhibition of cell proliferation or cell death: inhibition of cell proliferation or cell death was already observed
Mouse ES cells [1]; mouse ES cells, 10 μM BRQ, 2 days
  subcellular localization of Nanog: distributed in the cytoplasm
Mouse neural stem cells
  changes in proliferation/death and Sox2 expression: no similar changes were observed
Mouse ES cells [2]
  tumor formation from pretreated cells: did not proliferate
Mouse ES cells [3]
  CASP3 activation (Casp3 immunostaining): strongly activated
  cell proliferation (BrdU uptake assay): reduced the proliferation
[4]; ES cell medium
  iPS cells (Nanog) in mixed culture: lost
[4]; mixed with iPS cells
  cytotoxicity to neural stem cells (Nestin) in mixed culture: no obvious cytotoxicity
Mouse iPS cells [5]
  tumor formation from pretreated cells: did not proliferate
Mouse ES cells [6]; 10 μM BRQ
  cytotoxic activity (viability, MTT assay): significant cytotoxic activity
Mouse ES cells [6]; [12]
  cytotoxic activity (viability, MTT assay): significant cytotoxic activity
Mouse iPS cells [7]; 10 μM BRQ
  cytotoxic activity (viability, MTT assay): significant cytotoxic activity
Mouse iPS cells [7]; [12]
  cytotoxic activity (viability, MTT assay): significant cytotoxic activity
[8]
  cytotoxic activity (viability, MTT assay): significant cytotoxic activity
[9]
  side effects in treated mice: no visible side effects
